Legend:
HeLa = assay: Selectivity index, ratio of IC50 for HDAC1/HDAC2 in human HeLa cells nuclear extracts to IC50 for recombinant N-GST-tagged HDAC6 (unknown origin); format: cell-based
[1] = molecular target: T1, Protein deacetylase HDAC6 (Homo sapiens, UniProt Q9UBN7); assay: Inhibition of recombinant N-GST-tagged HDAC6 (unknown origin) assessed as reduction in deacetylation of Ac-Arg-Gly-Lys(Ac)-AMC substrate by fluorescence assay
T1 sequence (Q9UBN7 whole entry): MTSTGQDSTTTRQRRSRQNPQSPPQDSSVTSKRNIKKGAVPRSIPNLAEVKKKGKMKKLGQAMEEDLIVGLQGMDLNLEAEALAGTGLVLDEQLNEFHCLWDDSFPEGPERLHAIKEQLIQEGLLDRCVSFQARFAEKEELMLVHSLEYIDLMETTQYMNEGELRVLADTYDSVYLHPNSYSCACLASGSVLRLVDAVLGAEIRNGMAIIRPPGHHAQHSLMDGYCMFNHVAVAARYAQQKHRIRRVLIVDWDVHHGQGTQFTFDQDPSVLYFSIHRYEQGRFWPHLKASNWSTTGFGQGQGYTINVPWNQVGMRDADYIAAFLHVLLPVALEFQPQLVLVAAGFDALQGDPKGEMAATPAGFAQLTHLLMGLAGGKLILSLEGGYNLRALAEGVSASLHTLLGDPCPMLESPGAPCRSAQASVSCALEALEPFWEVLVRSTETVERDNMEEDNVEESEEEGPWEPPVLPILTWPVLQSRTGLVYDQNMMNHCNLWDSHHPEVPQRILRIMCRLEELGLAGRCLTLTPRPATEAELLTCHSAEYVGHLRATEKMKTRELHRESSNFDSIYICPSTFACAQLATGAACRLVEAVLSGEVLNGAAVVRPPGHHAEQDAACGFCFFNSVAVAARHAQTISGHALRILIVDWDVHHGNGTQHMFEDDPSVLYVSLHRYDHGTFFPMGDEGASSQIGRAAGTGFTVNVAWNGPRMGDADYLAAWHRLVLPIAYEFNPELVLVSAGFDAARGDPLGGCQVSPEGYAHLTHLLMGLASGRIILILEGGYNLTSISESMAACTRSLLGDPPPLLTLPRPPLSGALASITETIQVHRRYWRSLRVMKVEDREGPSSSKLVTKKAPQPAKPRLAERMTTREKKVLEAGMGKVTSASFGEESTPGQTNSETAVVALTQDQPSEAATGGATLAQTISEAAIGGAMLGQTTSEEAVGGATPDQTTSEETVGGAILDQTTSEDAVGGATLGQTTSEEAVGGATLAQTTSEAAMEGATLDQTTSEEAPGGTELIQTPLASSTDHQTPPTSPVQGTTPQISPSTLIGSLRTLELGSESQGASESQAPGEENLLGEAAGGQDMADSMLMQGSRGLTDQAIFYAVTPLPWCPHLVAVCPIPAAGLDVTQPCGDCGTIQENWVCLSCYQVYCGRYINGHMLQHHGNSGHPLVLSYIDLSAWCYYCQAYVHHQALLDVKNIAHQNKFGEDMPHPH

[2] = molecular target: Histone deacetylase (HDAC1 and HDAC2) (Homo sapiens) (UniProt Q13547+Q92769); assay: Inhibition of HDAC1/HDAC2 in human HeLa cells assessed as reduction in acetylated histone levels at 20 uM incubated for 24 hrs by immunofluorescence assay; format: cell-based
[3] = molecular target: T1, Protein deacetylase HDAC6; assay: Inhibition of HDAC6 in human HeLa cells assessed as reduction in K40 hyperacetylation of alpha-tubulin incubated for 6 hrs by immunofluorescence assay; format: cell-based
[4] = Aqueous solubility in pH 6.8 buffer solution; format: physicochemical
[5] = molecular target: T2, Polyamine deacetylase HDAC10 (Homo sapiens, UniProt Q969S8); assay: Inhibition of N-terminal GST-tagged human HDAC10 (1 to 481 residues) using Arg-His-Lys-Lys(Ac) substrate incubated for 2 hrs by fluorescence assay
T2 sequence (Q969S8 whole entry): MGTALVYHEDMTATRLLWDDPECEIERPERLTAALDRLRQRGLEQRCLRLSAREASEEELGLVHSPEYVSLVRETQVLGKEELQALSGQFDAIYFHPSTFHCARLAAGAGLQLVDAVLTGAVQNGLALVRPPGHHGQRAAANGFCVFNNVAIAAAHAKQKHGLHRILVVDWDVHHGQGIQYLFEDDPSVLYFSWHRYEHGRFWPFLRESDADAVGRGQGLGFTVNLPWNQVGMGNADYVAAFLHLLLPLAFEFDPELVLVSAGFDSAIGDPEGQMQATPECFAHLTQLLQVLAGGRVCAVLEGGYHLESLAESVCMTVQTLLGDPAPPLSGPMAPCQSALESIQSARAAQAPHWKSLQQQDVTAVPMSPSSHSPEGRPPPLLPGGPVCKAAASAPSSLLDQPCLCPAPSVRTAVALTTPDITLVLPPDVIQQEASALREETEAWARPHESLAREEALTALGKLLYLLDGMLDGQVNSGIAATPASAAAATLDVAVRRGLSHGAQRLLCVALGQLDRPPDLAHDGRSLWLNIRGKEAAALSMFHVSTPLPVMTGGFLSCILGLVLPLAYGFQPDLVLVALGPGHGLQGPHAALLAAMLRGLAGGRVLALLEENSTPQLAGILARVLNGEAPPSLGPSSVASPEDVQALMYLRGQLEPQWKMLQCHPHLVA

Histone deacetylase 8 = molecular target: T3, Histone deacetylase 8 (Homo sapiens, UniProt Q9BY41); assay: Inhibition of full length C-terminal 6x-His tagged human HDAC8 using Arg-His-Lys(Ac)-Lys(Ac) substrate incubated for 2 hrs by fluorescence assay
T3 sequence (Q9BY41 whole entry): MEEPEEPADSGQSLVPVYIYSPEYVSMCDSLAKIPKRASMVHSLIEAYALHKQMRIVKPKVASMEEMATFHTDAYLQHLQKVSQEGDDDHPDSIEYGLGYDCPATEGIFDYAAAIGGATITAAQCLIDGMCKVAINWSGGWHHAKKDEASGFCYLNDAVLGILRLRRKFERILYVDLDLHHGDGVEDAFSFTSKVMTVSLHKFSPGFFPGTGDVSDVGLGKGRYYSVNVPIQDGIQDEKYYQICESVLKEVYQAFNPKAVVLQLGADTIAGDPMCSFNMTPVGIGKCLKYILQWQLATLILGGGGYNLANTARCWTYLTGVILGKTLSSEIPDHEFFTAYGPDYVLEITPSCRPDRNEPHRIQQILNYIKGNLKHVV

Histone deacetylase 5 = Histone deacetylase 5 (Homo sapiens, UniProt Q9UQL6)
Histone deacetylase 1 = Histone deacetylase 1 (Homo sapiens, UniProt Q13547); assay: Inhibition of full length GST-tagged human HDAC1 using Arg-His-Lys-Lys(Ac) substrate incubated for 2 hrs by fluorescence assay
Histone deacetylase 4 = Histone deacetylase 4 (Homo sapiens, UniProt P56524)
Histone deacetylase 2 = Histone deacetylase 2 (Homo sapiens, UniProt Q92769)
Histone deacetylase 3 = Histone deacetylase 3 (Homo sapiens, UniProt O15379); assay: Inhibition of full length C-terminal 6x-His tagged human HDAC3 using Arg-His-Lys-Lys(Ac) substrate incubated for 2 hrs by fluorescence assay
[6] = Permeability in human Caco2 cells at pH 7.4; format: ADME, cell-based; conditions: Caco-2, pH 7.4, read-out: permeability
Histone deacetylase 11 = molecular target: T4, Histone deacetylase 11 (Homo sapiens, UniProt Q96DB2); assay: Inhibition of full length N-terminal GST-tagged human HDAC11 using Arg-His-Lys-Lys(Ac) substrate incubated for 2 hrs by fluorescence assay
T4 sequence (Q96DB2 whole entry): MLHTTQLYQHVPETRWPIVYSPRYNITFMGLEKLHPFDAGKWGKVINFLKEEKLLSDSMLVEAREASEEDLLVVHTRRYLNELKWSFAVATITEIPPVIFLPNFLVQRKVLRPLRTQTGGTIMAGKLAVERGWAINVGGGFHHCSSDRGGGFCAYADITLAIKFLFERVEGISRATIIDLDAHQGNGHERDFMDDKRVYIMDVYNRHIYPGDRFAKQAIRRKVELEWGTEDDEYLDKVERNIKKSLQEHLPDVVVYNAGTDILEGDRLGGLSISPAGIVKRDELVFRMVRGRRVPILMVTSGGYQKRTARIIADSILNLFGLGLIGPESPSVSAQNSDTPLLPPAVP

Histone deacetylase (HDAC1 and HDAC2) (Homo sapiens), sequence (Q13547 whole entry, looked up): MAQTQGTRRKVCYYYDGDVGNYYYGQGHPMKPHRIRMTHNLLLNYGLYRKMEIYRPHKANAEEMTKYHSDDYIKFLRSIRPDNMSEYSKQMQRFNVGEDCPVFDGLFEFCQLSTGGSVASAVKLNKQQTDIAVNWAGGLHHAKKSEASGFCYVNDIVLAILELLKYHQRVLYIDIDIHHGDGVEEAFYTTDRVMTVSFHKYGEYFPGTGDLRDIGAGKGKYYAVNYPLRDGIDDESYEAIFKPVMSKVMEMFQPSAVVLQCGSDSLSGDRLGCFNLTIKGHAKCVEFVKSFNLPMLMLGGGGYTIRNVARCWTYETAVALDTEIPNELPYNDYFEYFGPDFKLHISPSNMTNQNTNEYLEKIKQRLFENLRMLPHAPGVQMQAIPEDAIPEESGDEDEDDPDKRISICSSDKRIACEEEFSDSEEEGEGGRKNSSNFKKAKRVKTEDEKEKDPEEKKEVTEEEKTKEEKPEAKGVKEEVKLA
Histone deacetylase (HDAC1 and HDAC2) (Homo sapiens), sequence (Q92769 whole entry, looked up): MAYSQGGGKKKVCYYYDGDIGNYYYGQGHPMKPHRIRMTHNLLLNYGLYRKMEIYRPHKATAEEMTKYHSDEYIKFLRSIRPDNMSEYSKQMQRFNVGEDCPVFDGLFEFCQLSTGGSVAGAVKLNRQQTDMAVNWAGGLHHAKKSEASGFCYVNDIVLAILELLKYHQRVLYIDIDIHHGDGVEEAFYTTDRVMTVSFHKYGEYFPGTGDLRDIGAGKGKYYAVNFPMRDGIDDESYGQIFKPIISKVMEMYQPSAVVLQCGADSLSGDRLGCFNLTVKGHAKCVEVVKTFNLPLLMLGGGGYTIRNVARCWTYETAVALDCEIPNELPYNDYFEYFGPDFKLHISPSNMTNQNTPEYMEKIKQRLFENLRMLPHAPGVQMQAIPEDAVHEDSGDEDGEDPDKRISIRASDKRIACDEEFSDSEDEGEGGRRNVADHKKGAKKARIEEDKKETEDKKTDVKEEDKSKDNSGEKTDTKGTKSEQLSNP
Histone deacetylase 4, sequence (P56524 whole entry): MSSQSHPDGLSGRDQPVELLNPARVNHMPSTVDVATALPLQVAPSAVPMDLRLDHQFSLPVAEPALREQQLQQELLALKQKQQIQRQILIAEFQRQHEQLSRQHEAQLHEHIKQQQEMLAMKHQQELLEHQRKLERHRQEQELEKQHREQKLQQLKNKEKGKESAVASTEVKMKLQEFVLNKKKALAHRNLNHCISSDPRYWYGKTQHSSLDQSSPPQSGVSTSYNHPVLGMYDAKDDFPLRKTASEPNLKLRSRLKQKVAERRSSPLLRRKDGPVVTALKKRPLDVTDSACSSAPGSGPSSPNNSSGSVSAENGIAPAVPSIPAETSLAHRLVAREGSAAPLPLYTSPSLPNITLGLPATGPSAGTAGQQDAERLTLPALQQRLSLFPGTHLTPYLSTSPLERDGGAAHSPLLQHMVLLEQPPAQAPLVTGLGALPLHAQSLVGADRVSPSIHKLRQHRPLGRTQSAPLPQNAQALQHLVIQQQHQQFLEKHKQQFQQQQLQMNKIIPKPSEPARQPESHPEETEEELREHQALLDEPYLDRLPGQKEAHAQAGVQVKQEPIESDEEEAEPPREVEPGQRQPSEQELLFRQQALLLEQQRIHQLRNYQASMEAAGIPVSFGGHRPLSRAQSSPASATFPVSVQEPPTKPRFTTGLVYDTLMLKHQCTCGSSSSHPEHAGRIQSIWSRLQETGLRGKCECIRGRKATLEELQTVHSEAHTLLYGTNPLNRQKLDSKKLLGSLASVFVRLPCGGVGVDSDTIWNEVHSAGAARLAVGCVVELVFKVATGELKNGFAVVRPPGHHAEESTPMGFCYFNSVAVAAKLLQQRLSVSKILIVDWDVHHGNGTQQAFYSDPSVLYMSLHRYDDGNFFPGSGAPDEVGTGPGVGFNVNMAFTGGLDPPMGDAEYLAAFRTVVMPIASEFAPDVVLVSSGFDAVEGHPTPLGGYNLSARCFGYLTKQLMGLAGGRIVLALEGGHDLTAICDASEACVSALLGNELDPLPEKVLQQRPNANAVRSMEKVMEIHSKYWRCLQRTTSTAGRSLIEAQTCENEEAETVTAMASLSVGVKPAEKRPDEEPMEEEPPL
Histone deacetylase 1, sequence (Q13547 whole entry): as the sequence (Q13547 whole entry, looked up) above
Histone deacetylase 2, sequence (Q92769 whole entry): as the sequence (Q92769 whole entry, looked up) above
Histone deacetylase 5, sequence (Q9UQL6 whole entry): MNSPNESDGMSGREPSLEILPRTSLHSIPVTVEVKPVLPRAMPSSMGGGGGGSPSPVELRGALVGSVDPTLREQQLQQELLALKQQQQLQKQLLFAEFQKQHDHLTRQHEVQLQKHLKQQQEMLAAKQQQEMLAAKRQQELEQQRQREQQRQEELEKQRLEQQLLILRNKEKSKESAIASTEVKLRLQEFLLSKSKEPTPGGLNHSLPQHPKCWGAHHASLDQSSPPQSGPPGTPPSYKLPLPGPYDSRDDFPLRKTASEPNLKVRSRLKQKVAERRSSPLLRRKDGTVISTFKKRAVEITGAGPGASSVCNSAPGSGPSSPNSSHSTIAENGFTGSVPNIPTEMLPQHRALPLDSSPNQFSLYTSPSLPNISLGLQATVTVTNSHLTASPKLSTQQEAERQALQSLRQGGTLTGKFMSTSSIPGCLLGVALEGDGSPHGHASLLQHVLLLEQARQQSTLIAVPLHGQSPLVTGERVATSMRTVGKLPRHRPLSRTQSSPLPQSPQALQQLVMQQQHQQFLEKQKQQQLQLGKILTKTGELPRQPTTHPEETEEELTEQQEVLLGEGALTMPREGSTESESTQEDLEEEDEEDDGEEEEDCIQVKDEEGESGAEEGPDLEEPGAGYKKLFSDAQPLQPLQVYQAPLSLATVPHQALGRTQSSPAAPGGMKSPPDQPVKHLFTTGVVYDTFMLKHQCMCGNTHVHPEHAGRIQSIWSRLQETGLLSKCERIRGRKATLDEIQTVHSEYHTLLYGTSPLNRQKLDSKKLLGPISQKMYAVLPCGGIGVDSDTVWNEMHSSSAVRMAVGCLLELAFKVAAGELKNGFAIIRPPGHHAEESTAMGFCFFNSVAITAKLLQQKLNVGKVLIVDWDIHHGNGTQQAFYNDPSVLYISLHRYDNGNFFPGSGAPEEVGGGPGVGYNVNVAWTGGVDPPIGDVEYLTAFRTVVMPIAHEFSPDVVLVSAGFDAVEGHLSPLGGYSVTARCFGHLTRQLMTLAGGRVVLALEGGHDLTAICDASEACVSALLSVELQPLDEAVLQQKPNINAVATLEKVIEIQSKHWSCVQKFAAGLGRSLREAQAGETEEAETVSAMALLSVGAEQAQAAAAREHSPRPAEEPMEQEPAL
Histone deacetylase 3, sequence (O15379 whole entry): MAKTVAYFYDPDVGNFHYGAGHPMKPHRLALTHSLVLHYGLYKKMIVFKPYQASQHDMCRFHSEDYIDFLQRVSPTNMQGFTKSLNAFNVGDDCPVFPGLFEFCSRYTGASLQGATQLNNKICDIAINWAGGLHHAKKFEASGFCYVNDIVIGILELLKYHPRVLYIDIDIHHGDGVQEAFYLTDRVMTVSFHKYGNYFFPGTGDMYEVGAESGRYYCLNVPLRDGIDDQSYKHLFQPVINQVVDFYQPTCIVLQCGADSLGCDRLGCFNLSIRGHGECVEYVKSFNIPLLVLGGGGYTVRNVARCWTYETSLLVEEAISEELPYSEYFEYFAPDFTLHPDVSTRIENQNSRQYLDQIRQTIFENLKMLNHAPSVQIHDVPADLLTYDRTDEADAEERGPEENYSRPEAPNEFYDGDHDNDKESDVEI

| Compound | IC50 [1] [µM] | inhibition [2] [%] | IC50 [3] [µM] | Ratio IC50 (HeLa) | other results |
| --- | --- | --- | --- | --- | --- |
| COc1ccc(C(=O)N2CCn3nc(C(=O)NO)cc3C2)cc1 | 0.81 | < 20 |  | 120 |  |
| O=C(NO)c1cc2n(c1)CCN(C(=O)c1ccc(-c3ccccc3)cc1)C2 | 0.032 | < 20 |  | 44 |  |
| O=C(NO)c1cc2n(c1)CCN(C(=O)c1cc3ccccc3s1)C2 | 0.039 | < 20 |  | 14 |  |
| COc1ccc(C(=O)N2CCn3cc(C(=O)NO)cc3C2)cc1 | 0.043 | < 20 | 0.1 | 130 |  |
| O=C(NO)c1cc2n(c1)CCN(C(=O)C1CCCCC1)C2 | 0.1 | < 20 | 0.73 | 250 |  |
| Cn1cc(C(=O)N2CCn3cc(C(=O)NO)cc3C2)c2ccccc21 | 0.19 | < 20 |  | 6.3 |  |
| Cn1cccc1C(=O)NCc1ccc(C(=O)NO)cc1 |  | < 20 |  | 115 |  |
| O=C(NO)c1cc2n(c1)CCN(C(=O)c1cc3ccccc3[nH]1)C2 | 0.28 | < 20 |  | 24 |  |

Now from value to compound, other results behind:

| IC50 [1] [µM] | inhibition [2] [%] | IC50 [3] [µM] | Compound | Ratio IC50 (HeLa) | other results |
| --- | --- | --- | --- | --- | --- |
|  | < 20 |  | Cn1cccc1C(=O)N1CCc2cc(C(=O)NO)ccc2C1 | 500 |  |
| 0.13 | < 20 |  | Cn1cccc1C(=O)N1CCn2cc(C(=O)NO)nc2C1 | 770 |  |
| 0.087 | < 20 | 2.1 | O=C(NO)c1cn2c(n1)CN(C(=O)c1ccc(-c3ccccc3)cc1)CC2 | 70 |  |
| 0.35 | < 20 | 2.2 | Cn1cccc1C(=O)N1CCn2nc(C(=O)NO)cc2C1 | 220 |  |
| 0.033 | < 20 | 0.069 | Cn1cccc1C(=O)N1CCn2cc(C(=O)NO)cc2C1 |  | solubility [4]: > 200 µM; IC50 [5]: 41 µM; IC50 (Histone deacetylase 8): 3.3 µM; IC50 (Histone deacetylase 5): 29 µM; IC50 (Histone deacetylase 1): 15 µM; IC50 (Histone deacetylase 4): > 50 µM; IC50 (Histone deacetylase 2): 39 µM; IC50 (Histone deacetylase 3): 8.5 µM; Papp [6]: 42 nm/s; IC50 (Histone deacetylase 11): 29 µM |
| 0.064 | < 20 |  | O=C(NO)c1cn2c(n1)CN(C(=O)c1cc3ccccc3s1)CC2 | 52 |  |
| 0.085 | < 20 | 0.14 | Cn1ccc2cc(C(=O)N3CCn4cc(C(=O)NO)cc4C3)ccc21 | 35 |  |
| 0.11 | < 20 |  | O=C(NO)c1cc2n(c1)CCN(C(=O)c1cccs1)C2 | 150 |  |
| 0.033 | < 20 | 0.15 | Cn1c(C(=O)N2CCn3cc(C(=O)NO)cc3C2)cc(Cl)c1Cl | 100 |  |
| 0.076 | < 20 | 3.5 | Cn1c(C(=O)N2CCn3nc(C(=O)NO)cc3C2)cc2ccccc21 | 66 |  |
